Patent publication US20220145316A1, “CANCER IMMUNOTHERAPY” (priority 2019, published 2022)
*1 amine or outer side, *2 acyl side, *3 side chain or, on linkers, in order; H or OH if unused. Where a SMILES comes first, the peptide text is derived from it. [ ]: non-standard residue; d: D form. The star is where a group is joined. Dolaproine = CO[C@@H]([C@@H]1CCCN1)[C@@H](C)C(=O)O; Hexanoyl(6-maleimido) = O=C1C=CC(=O)N1CCCCCC(=O)*; Dil = CC[C@H](C)[C@H](NC)[C@@H](CC(=O)O)OC; PABC = O=C(OCc1ccc(N[*:1])cc1)[*:2]; X1 = C[C@@H](N*)[C@@H](O)c1ccccc1; Cit = NC(=O)NCCC[C@H](N)C(=O)O; NMeV = CN[C@H](C(=O)O)C(C)C

What was measured:
[1] = system: Raji-luc B lymphoma cells; experiment: Drug delivery study in Raji B cell lymphoma model (survival, bioluminescence, kidney histology); type: in vivo, NSG mice
Description: Drug delivery study and histology: NSG male mice (7 weeks) were inoculated with 1×10^6 Raji-luc cells intravenously. […] For the first study, dosing started on day 3 and drugs/drug delivery system were injected i.p. every 4 days for a total of 6 injections. For the second study, dosing started on day 11 and drugs/drug delivery system were injected i.p. every 4 days for a total of 3 injections. For both studies, weekly bioluminescence imaging using the IVIS Spectrum was used to monitor lymphoma progression. […] Tissues were harvested for histology using H&E staining to show tumor burden or lack thereof.
Male NSG mice were injected intravenously with luciferase expressing Raji cells and monitored for lymphoma engraftment and progression using bioluminescence imaging. Tumor engrafted mice were randomly assigned to the treatment groups (n=5).
The MMAE dose was selected based on the fact that the known maximum tolerated dose (MTD) of free MMAE is 0.25-0.5 mg kg^−1 after a single administration. A dose of 0.125 mg/kg was chosen to allow for multiple treatments. Mice injected intravenously with Raji cells develop hind leg paralysis (due to the infiltration of neoplastic cells into the spinal canal) and/or lose weight prior to death. Therefore, hind leg paralysis or >15% loss in body weight were considered experimental endpoints at which mice were euthanized.

[2] = after a single administration; cited from earlier work
Raji cells = conditions: read-out: IC50 (cytotoxicity), 72 hours
Description: (§1) Cell viability and proliferation in cell lines were estimated using a resazurin based assay (Prestoblue, Thermo Scientific). Cell viability in healthy B cells was measured using 7-AAD (Cayman Chemical Company, Ann Harbor, Mich.) cell exclusion using flow cytometric analysis gated on the B cell fraction (CD19-PE, BD Biosciences, Franklin Lakes, N.J.).

Daudi cells = conditions: read-out: IC50 (cytotoxicity), 72 hours
Description: as §1

normal donor B cells = conditions: normal B cells from healthy human donor, 72 hours
Description: as §1

Structure (SMILES)	histological analysis of kidney sections, lymphoma cell infiltration ([1]; H&E, PVX and MMAE mice when moribund, PVX-vcMMAE mice at end of study period)	lymphoma progression by bioluminescence imaging ([1]; first study: 6 i.p. injections every 4 days from day 3)	median survival ([1]; first study: 6 i.p. injections every 4 days from day 3, MMAE 0.125 mg/kg, PVX-vcMMAE 0.4 mg/kg, PVX 1 mg, PBS 45 days)	median survival ([1]; second study: 3 i.p. injections every 4 days from day 11, PBS 42 days)	maximum tolerated dose (MTD) [2]	IC50 (Raji cells)	IC50 (Daudi cells)	cytotoxicity towards non-dividing normal donor B cells (normal donor B cells)
CC[C@H](C)[C@@H]([C@@H](CC(=O)N1CCC[C@H]1[C@H](OC)[C@@H](C)C(=O)N[C@H](C)[C@@H](O)c1ccccc1)OC)N(C)C(=O)[C@@H](NC(=O)[C@@H](NC)C(C)C)C(C)C [MMAE, (S)-N-((3R,4S,5S)-1-((S)-2-((1R,2R)-3-(((1S,2R)-1-hydroxy-1-phenylpropan-2-yl)amino)-1-methoxy-2-methyl-3-oxopropyl)pyrrolidin-1-yl)-3-methoxy-5-methyl-1-oxoheptan-4-yl)-N,3-dimethyl-2-((S)-3-methyl-2-(methylamino)butanamido)butanamide] (H-[NMeV]V[Dil][Dolaproine]-X1)	reduced lymphoma cell infiltration	partially limited lymphoma progression	61 days	39 days	0.25 to 0.5 mg/kg			
CC[C@H](C)[C@@H]([C@@H](CC(=O)N1CCC[C@H]1[C@H](OC)[C@@H](C)C(=O)N[C@H](C)[C@@H](O)c1ccccc1)OC)N(C)C(=O)[C@@H](NC(=O)[C@H](C(C)C)N(C)C(=O)OCc1ccc(NC(=O)[C@H](CCCNC(N)=O)NC(=O)[C@@H](NC(=O)CCCCCN2C(=O)C=CC2=O)C(C)C)cc1)C(C)C [vcMMAE] ({Hexanoyl(6-maleimido)}-V[Cit][PABC][NMeV]V[Dil][Dolaproine]-X1)						160 nM	80 nM	no cytotoxicity
